Results on 9 compounds are retold here after ChEMBL document CHEMBL1201862, “PubChem BioAssay data set” (2004).

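All cell lines were grown in 96-well plates and treated with compound for 48 hours. GI50 marks 50% less growth.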 Calls of active or inactive are those of the source. No stated cut-off is given here; in the data, active = GI50 up to about 1.1 µM and inactive = higher.

Among the test systems are HOP-92; OVCAR-8; RPMI-8226; OVCAR-4; SN12C; HOP-62; SR; UACC-257; SK-MEL-28; UO-31; HCT-15; HCT-116; M14; IGROV-1; SF-268; MCF7; T47D; NCI/ADR-RES; MDA-MB-231.
Holding throughout (assay): NCI anticancer screen, dose series, 48 h

For `O=c1cc(CO)oc2c3c(cc(O)c12)OCC(COC1OC(CO)C(O)C(O)C1O)=CC3` (stereo not given), the GI50 with HOP-92, with OVCAR-8, with RPMI-8226, in the assay on OVCAR-4, with SN12C and in the assay on HOP-62 was > 100 µM (inactive) in each case. The GI50 in the assay on SR is > 100 µM (inactive); in the assay with UACC-257, > 100 µM (inactive); in the assay with SK-MEL-28 it was > 100 µM (inactive); in the assay with UO-31 it was > 100 µM (inactive); with HCT-15 it was above 100 µM; in the assay with HCT-116, > 100 µM (inactive). Also, the GI50 in the assay on M14, in the assay with IGROV-1 and with SF-268 was > 100 µM (inactive) throughout.

On to `COC(=O)NNC(=O)OC.COC(=O)Nc1ccccc1NC(=O)OC.COC(=O)Oc1nn(C(=O)OC)c(=O)c2ccccc12`, for which the GI50 with OVCAR-8, with RPMI-8226, in the assay with OVCAR-4, in the assay on MCF7, in the assay on SN12C and in the assay with HOP-62 was > 100 µM (inactive) in each case. In addition, the GI50 with SR, in the assay on UACC-257, with T47D, with NCI/ADR-RES, with SK-MEL-28 and in the assay with UO-31 was > 100 µM (inactive) each time. The GI50 with HCT-15 was above 100 µM; in the assay with HCT-116 it was > 100 µM (inactive); with M14, > 100 µM (inactive); in the assay on IGROV-1 it was > 100 µM (inactive); in the assay on MDA-MB-231 it was > 100 µM (inactive); in the assay on SF-268 it was > 100 µM (inactive).

Take `O=C1NCC2(CCN(CCCC3(c4ccc(F)cc4)OCCO3)CC2)N1c1ccccc1`: the GI50 with HOP-92 was 36.7 µM (inactive); in the assay on OVCAR-8, > 100 µM (inactive); in the assay with RPMI-8226 it was > 100 µM (inactive); in the assay with OVCAR-4, > 100 µM (inactive); in the assay on SN12C, > 100 µM (inactive); in the assay on HOP-62, > 100 µM (inactive). Besides, the GI50 in the assay on SR is > 100 µM (inactive); in the assay on UACC-257, 70.6 µM (inactive); in the assay with T47D, > 100 µM (inactive); in the assay on NCI/ADR-RES, > 100 µM (inactive); in the assay on SK-MEL-28 it was > 100 µM (inactive); with HCT-15 it was above 100 µM. For the same compound, the GI50 in the assay on HCT-116, in the assay on M14, in the assay on IGROV-1, with MDA-MB-231 and in the assay on SF-268 was > 100 µM (inactive) throughout.

Regarding `CC1(C)c2ccccc2N2C(c3ccccc3)=NOC21C` (stereo not given), the GI50 with HOP-92, in the assay with OVCAR-8, in the assay with RPMI-8226, with OVCAR-4, in the assay on SN12C and in the assay on HOP-62 was > 100 µM (inactive) each time. Besides, the GI50 in the assay with SR is > 100 µM (inactive); in the assay on UACC-257 it was > 100 µM (inactive); in the assay with SK-MEL-28 it was > 100 µM (inactive); in the assay with UO-31 it was > 100 µM (inactive); in the assay on HCT-15, above 100 µM; in the assay on HCT-116 it was > 100 µM (inactive). Also, the GI50 in the assay with M14, in the assay on IGROV-1 and in the assay with SF-268 was > 100 µM (inactive) each time.

With `Cc1cc(Cl)ccc1NC(=O)C1C(=O)N(c2ccc(Cl)cc2C)C(=O)/C1=N\N` (stereo not given), the GI50 was 34.7 µM (inactive) in the assay on HOP-92; 48.3 µM (inactive) in the assay with OVCAR-8; 25.4 µM (inactive) with RPMI-8226; 83.2 µM (inactive) in the assay on OVCAR-4; 36.6 µM (inactive) with SN12C; 40.7 µM (inactive) in the assay with HOP-62. Further, the GI50 was 26.6 µM (inactive) in the assay on SR; > 100 µM (inactive) with UACC-257; 52.5 µM (inactive) with SK-MEL-28; 33 µM (inactive) with UO-31; 34.8 µM with HCT-15; 30.5 µM (inactive) in the assay on HCT-116. For the same compound, the GI50 in the assay with M14 is 61.2 µM (inactive); in the assay on IGROV-1, 55.1 µM (inactive); in the assay on SF-268, 26.5 µM (inactive).

As to `CC(C)N(CCn1c2c3ccccc3ccc2c2oc(=O)c3ccccc3c21)C(C)C`, the GI50 was > 54.3 µM (inactive) in the assay with HOP-92; > 48.6 µM (inactive) with OVCAR-8; > 100 µM (inactive) in the assay with RPMI-8226; > 100 µM (inactive) in the assay on OVCAR-4; > 100 µM (inactive) in the assay with SN12C; > 23.1 µM (inactive) with HOP-62. Moreover, the GI50 is > 100 µM (inactive) in the assay with SR; > 54.8 µM (inactive) in the assay on UACC-257; > 100 µM (inactive) with SK-MEL-28; > 100 µM (inactive) in the assay with UO-31; above 100 µM in the assay on HCT-15; > 100 µM (inactive) with HCT-116. For the same compound, the GI50 is > 100 µM (inactive) in the assay on M14, > 100 µM (inactive) with IGROV-1 and > 69.7 µM (inactive) in the assay with SF-268.

Turning to `Cc1ccc(C(=O)/C=C(\O)C(=O)NC23CC4CC(CC(C4)C2)C3)cc1`, the GI50 was > 10 µM (inactive) with HOP-92; > 10 µM (inactive) in the assay with OVCAR-8; 8.61 µM (inactive) with RPMI-8226; > 10 µM (inactive) with OVCAR-4; 7.41 µM (inactive) with MCF7; 7.59 µM (inactive) with SN12C. In addition, the GI50 with HOP-62 is 6.7 µM (inactive); with SR, 3.62 µM (inactive); in the assay on UACC-257 it was > 10 µM (inactive); in the assay on T47D, > 10 µM (inactive); with SK-MEL-28, > 10 µM (inactive); in the assay on HCT-15, 6.27 µM. Besides, the GI50 in the assay with M14 was > 10 µM (inactive); with MDA-MB-231 it was 8.71 µM (inactive); in the assay on SF-268 it was > 10 µM (inactive).

On to `O=C(O)CCC(NC(=O)c1ccc(CNc2nc3cc(C(F)(F)F)ccc3nc2C(=O)O)cc1)C(=O)O` (stereo not given), for which the GI50 in the assay on HOP-92, in the assay on OVCAR-8, in the assay with OVCAR-4, in the assay with HOP-62, with SR and with UACC-257 was > 100 µM (inactive) in each case. Also, the GI50 in the assay with T47D was > 100 µM (inactive); in the assay on NCI/ADR-RES, > 100 µM (inactive); with SK-MEL-28, > 100 µM (inactive); with UO-31, > 100 µM (inactive); in the assay with HCT-15, above 100 µM; with HCT-116, > 100 µM (inactive). The GI50 in the assay on M14, in the assay with IGROV-1 and in the assay with SF-268 was > 100 µM (inactive) throughout.

Consider `c1ccc2c(c1)[nH]c1c[nH]c3c4cccnc4nc-3c12`, for which the GI50 is 28.2 µM (inactive) in the assay with HOP-92; 17.1 µM (inactive) with OVCAR-8; 25.3 µM (inactive) in the assay with RPMI-8226; 18.2 µM (inactive) with OVCAR-4; 18.6 µM (inactive) in the assay with SN12C; 29.9 µM (inactive) in the assay on HOP-62. Besides, the GI50 in the assay on SR was 17.7 µM (inactive); in the assay on UACC-257 it was 23.9 µM (inactive); in the assay on SK-MEL-28, 21.2 µM (inactive); in the assay with UO-31, 15.3 µM (inactive); in the assay on HCT-15 it was 15.3 µM; in the assay on HCT-116, 17.1 µM (inactive). Moreover, the GI50 was 15 µM (inactive) with M14, 18.1 µM (inactive) with IGROV-1 and 19.7 µM (inactive) with SF-268.
